pIC50: −log10 of the molar value.
molecular target: V1 receptor (Rattus norvegicus, UniProt P30560); assay: biochemical; format: binding; conditions: not given
Sequence (P30560 whole entry): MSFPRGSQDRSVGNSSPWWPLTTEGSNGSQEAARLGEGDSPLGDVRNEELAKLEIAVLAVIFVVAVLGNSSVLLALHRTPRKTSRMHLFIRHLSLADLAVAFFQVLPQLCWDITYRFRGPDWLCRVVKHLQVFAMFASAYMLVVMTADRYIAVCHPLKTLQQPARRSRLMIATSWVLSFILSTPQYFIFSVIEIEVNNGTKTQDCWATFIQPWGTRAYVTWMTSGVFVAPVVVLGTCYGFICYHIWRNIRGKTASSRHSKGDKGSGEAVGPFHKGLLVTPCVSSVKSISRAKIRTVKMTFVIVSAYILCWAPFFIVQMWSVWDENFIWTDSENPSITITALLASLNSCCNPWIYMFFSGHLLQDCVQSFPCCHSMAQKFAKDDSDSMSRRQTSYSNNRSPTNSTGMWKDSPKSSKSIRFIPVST

First: O=C(OCCCCOc1ccc(C(=O)N2CCC(N3C(=O)CCc4ccccc43)CC2)cc1)N1CCN(Cc2ccccc2)CC1 [Example 161, 1-{1-[4-[4-(4-Benzyl-1-piperazinyl)carbonyloxybutoxy]benzoyl]-4-piperidinyl}-3,4-dihydrocarbostyril]
Second: C=CCN1CCN(CCCCOc2ccc(C(=O)N3CCC(N4C(=O)CCc5ccccc54)CC3)cc2)CC1 [Example 227, 1-{1-(4-[4-(4-Allyl-1-piperazinyl)butoxy]benzoyl)-4-piperidinyl)-3,4-dihydrocarbostyril]
The pIC50 of the first is 0.54 log units lower: 6.35 for the first, 6.89 for the second. The second is the more potent here.

Compared with `Nc1ccc(SCCCCCOc2ccc(C(=O)N3CCC(N4C(=O)CCc5ccccc54)CC3)cc2)cc1` [Example 284, 1-{1-(4-[5-(4-Aminophenylthio)pentyloxy]benzoyl)-4-piperidinyl}-3,4-dihydrocarbostyril], `NC(=O)OCCCCCCOc1ccc(C(=O)N2CCC(N3C(=O)CCc4ccccc43)CC2)cc1` [Example 212, 1-{1-[4-(6-Carbamoyloxyhexyloxy)benzoyl]-4-piperidinyl}-3,4-dihydrocarbostyril] is 0.40 log units higher in pIC50: 6.40 for the first, 6.80 for the second.

Going from `O=C(c1ccc(OCCCCCN2CCC[C@H]2CO)cc1)N1CCC(N2C(=O)CCc3ccccc32)CC1` [Example 238, 1-(1-(4-[5-(2-(S)-Hydroxymethyl-1-pyrrolidinyl)pentyloxy]benzoyl)-4-piperidinyl}-3,4-dihydrocarbostyril] to `COC(=O)[C@@H]1CCCN1CCCCCOc1ccc(C(=O)N2CCC(N3C(=O)CCc4ccccc43)CC2)cc1` [Example 239, 1-{1-(4-[5-(2-(S)-Methoxycarbonyl-1-pyrrolidinyl)pentyloxy]benzoyl)-4-piperidinyl}-3,4-dihydrocarbostyril], the pIC50 falls from 7.48 to 6.82 (0.66 log units). The first is the more potent here.

First: CCN(CC)CC(O)COCCCCCOc1ccc(C(=O)N2CCC(N3C(=O)CCc4ccccc43)CC2)cc1 (stereo not drawn) [Example 190, 1-{1-[4-(5-(2-Hydroxy-3-diethylaminopropoxy)pentyloxy)benzoyl]-4-piperidinyl}-3,4-dihydrocarbostyril]
Second: CN(CCC#N)CCCCCOc1ccc(C(=O)N2CCC(N3C(=O)CCc4ccccc43)CC2)cc1 [Example 247, 1-{1-(4-[5-(N-(2-Cyanoethyl)-N-methylamino)pentyloxy]benzoyl)-4-piperidinyl}-3,4-dihydrocarbostyril]
The pIC50 of the first is 0.71 log units higher: 7.48 for the first, 6.77 for the second. The first is the more potent here.

`CC(=O)OCC(=O)NCCCCCOc1ccc(C(=O)N2CCC(N3C(=O)CCc4ccccc43)CC2)cc1` [Example 229, 1-{1-(4-[5-(2-Acetoxyacetylamino)pentyloxy]benzoyl)-4-piperidinyl]-3,4-dihydrocarbostyril] and `CC(=O)NCC(=O)NCCCCOc1ccc(C(=O)N2CCC(N3C(=O)CCc4ccccc43)CC2)cc1` [Example 25] are within 0.2 log units of each other in pIC50: 6.70 for the first, 6.62 for the second.

Compared with `COc1cc(OCCCCC(=O)N2CC[S+]([O-])CC2)ccc1C(=O)N1CCC(N2C(=O)CCc3ccccc32)CC1` [Example 295, 1-{1-(2-Methoxy-4-[4-(4-oxothiomorpholino)carbonylbutyloxy)benzoyl]-4-piperidinyl}-3,4-dihydrocarbostyril], `O=C(c1ccc(OCCCO)cc1)N1CCC(N2C(=O)CCc3ccccc32)CC1` [Example 32, 1-{1-[4-(3-Hydroxypropoxy)benzoyl]-4-piperidinyl}-3,4-dihydrocarbostyril] is 0.77 log units lower in pIC50: 7.11 for the first, 6.34 for the second.

Going from `C[Si](C)(C)c1ccc(C(=O)N2CCC(N3C(=O)CCc4ccccc43)CC2)cc1` [Example 110, 1-[1-(4-Trimethylsilylbenzoyl)-4-piperidinyl]-3,4-dihydrocarbostyril] to `CNCC(O)CCCOc1ccc(C(=O)N2CCC(N3C(=O)CCc4ccccc43)CC2)cc1` (stereo not drawn) [Example 30, 1-{1-[4-(5-Methylamino-4-hydroxypentyloxy)benzoyl]-4-piperidinyl}-3,4-dihydrocarbostyril], the pIC50 rises from 5.89 to 6.48 (0.59 log units).

Compared with `CC(C)[C@@H](N)C(=O)NCCCOc1ccc(C(=O)N2CCC(N3C(=O)CCc4ccccc43)CC2)cc1` [Example 225, 1-[1-{4-(3-(R)-Valylaminopropoxy]benzoyl]-4-piperidinyl]-3,4-dihydrocarbostyril], `CC(=O)NCC(=O)NCCCOc1ccc(C(=O)N2CCC(N3C(=O)CCc4ccccc43)CC2)cc1` [Example 181, 1-{1-[4-(3-Acetylaminoacetylaminopropoxy)benzoyl]-4-piperidinyl}-3,4-dihydrocarbostyril] is 0.36 log units lower in pIC50: 7.00 for the first, 6.64 for the second.

`CN(CCc1ccccc1)CC(O)CCCCOc1ccc(C(=O)N2CCC(N3C(=O)CCc4ccccc43)CC2)cc1` (stereo not drawn) [Example 203, 1-{1-[4-(5-Hydroxy-6-[N-(2-phenylethyl)-N-methylamino]hexyloxy)benzoyl]-4-piperidinyl)-3,4-dihydrocarbostyril] and `CN(C)CCN(CCCCCOc1ccc(C(=O)N2CCC(N3C(=O)CCc4ccccc43)CC2)cc1)Cc1ccccc1` [Example 248, 1-{1-(4-[5-(N-(2-Dimethylaminoethyl)-N-benzylamino)pentyloxy]benzoyl)-4-piperidinyl}-3,4-dihydrocarbostyril] are within 0.2 log units of each other in pIC50: 7.31 for the first, 7.47 for the second.

First: O=C(CCCNC(=O)OCc1ccccc1)NCCCCCOc1ccc(C(=O)N2CCC(N3C(=O)CCc4ccccc43)CC2)cc1 [Example 250, 1-{1-(4-[5-(4-Benzyloxycarbonylaminobutyrylamino)pentyloxy]benzoyl)-4-piperidinyl}-3,4-dihydrocarbostyril]
Second: COC(=O)[C@H](CCCCN)NC(=O)CCCCCOc1ccc(C(=O)N2CCC(N3C(=O)CCc4ccccc43)CC2)cc1 [Example 166, 1-{1-[4-{5-[5-Amino-1-(S)-methoxycarbonyl]pentylaminocarbonylpentyloxy}benzoyl]-4-piperidinyl}-3,4-dihydrocarbostyril]
The pIC50 of the first is 0.87 log units lower: 6.49 for the first, 7.36 for the second. The second is the more potent here.

Compared with `O=C(c1ccc(OCCCCCCC(O)CN2CCCC2)cc1)N1CCC(N2C(=O)CCc3ccccc32)CC1` (stereo not drawn) [Example 206, 1-(1-[4-(7-Hydroxy-8-(1-pyrrolidinyl)octyloxy)benzoyl]-4-piperidinyl)-3,4-dihydrocarbostyril], `COc1cccc(CNCC(O)CCCCOc2ccc(C(=O)N3CCC(N4C(=O)CCc5ccccc54)CC3)cc2)c1` (stereo not drawn) [Example 298, 1-{1-(4-[5-Hydroxy-6-(3-methoxybenzylamino)hexyloxy]benzoyl)-4-piperidinyl}-3,4-dihydrocarbostyril] is 0.33 log units lower in pIC50: 7.52 for the first, 7.19 for the second.

Going from `COc1ccc(C(=O)N2CCC(N3C(=O)CCc4ccccc43)CC2)c(N(C)C)c1` [Example 55, 1-[1-(2-Dimethylamino-4-methoxybenzoyl)-4-piperidinyl]-3,4-dihydrocarbostyril] to `Cn1ccnc1S(=O)(=O)CCCCCOc1ccc(C(=O)N2CCC(N3C(=O)CCc4ccccc43)CC2)cc1` [Example 282, 1-{1-(4-[5-(1-Methyl-2-imidazolylsulfonyl)pentyloxy)benzoyl)-4-piperidinyl}-3,4-dihydrocarbostyril], the pIC50 rises from 6.70 to 7.12 (0.42 log units). The second is the more potent here.

Work on `CNc1ccc(C(=O)NCCCCOc2ccc(C(=O)N3CCC(N4C(=O)CCc5ccccc54)CC3)cc2)cc1` [Example 126, 1-[1-{4-[(4-Methylaminobenzoyl)aminobutoxy]-benzoyl}-4-piperidinyl]-3,4-dihydrocarbostyril] yielded a pIC50 of 6.44.

same assay, conditions: [H]3-Arg-vasopressin 2×10^-10 M, rat liver plasma membrane, 37° C., 10 minutes, pH 8.0

In the case of `O=C(c1ccc(OCCCCCn2ccnc2)cc1)N1CCC(N2C(=O)CCc3ccccc32)CC1` [Example 236], the pIC50 was 6.59.

same assay, conditions: [H]3-Arg-vasopressin 2×10^-10 M, rat liver plasma membrane, 37° C., 10 minutes, pH 8.0; read-out: IC50

In the case of `COc1cc(SC)ccc1C(=O)N1CCC(N2C(=O)CCc3ccccc32)C1` (stereo not drawn) [Example 84, 1-[1-(2-Methoxy-4-methylthiobenzoyl)-3-pyrrolidinyl]-3,4-dihydrocarbostyril], the pIC50 was 5.15.

Reference: patent US5436254A, “Carbostyril derivatives” (Otsuka Pharmaceutical Company, Ltd., priority 1989, dated 1995)
